pKi: −log10 of the molar value.
Experiments:
[1] = after intravenous injection into rodent or monkey; cited from earlier work
[2] = target: beta-amyloid plaques in AD brain tissue (Homo sapiens, UniProt P05067); assay: In vitro binding assay: competitive displacement of [3H]6-OH-BTA-1 in AD brain homogenate; conditions: for pKi: [3H]6-OH-BTA-1 as reference radioligand, AD brain tissue
Experimental: AD brain tissue was homogenized at 1:500 in PBS, and 800 μL suspension was used in each tube. [^3H]6-OH-BTA-1 with a concentration of 1 mCi/mL stock solution was diluted using ethanol to give an intermediate solution of 1 μCi/100 μL, which was further diluted using PBS to result in a dilute stock solution of 2.7×10^−2 μCi/100 μL, and 100 μL was used in each tube (2 vials with 100 μL of [^3H]6-OH-BTA-1 each and scintillation fluid as references). Cold 6-OH-BTA-1 or other displacer was dissolved in ethanol to result in a stock solution of 1×10^−3 M, which was further diluted using PBS or ethanol to result in solutions with concentrations ranging from 1×10^−5 to 10^−10 M, and 100 μL was used in each tube. After assembly, the tubes were vortexed, and incubated for 3 hrs at room temperature. After separation using a cell harvester, the filter paper (GF/B filter paper pretreated with 0.5% polyimine solution) was washed with 10% ethanol in PBS (3×3 mL). The filters were placed into 20 mL glass vials and 10 mL scintillation fluid each was added. After overnight incubation, the samples were counted. The data were analyzed using GraphPad Prism 4 or KaleidaGraph 3.6. […]
Some lipophilic ligands required ethanol in the medium to increase their solubility and to effect displacement of reference radioligand. […] This displacement curve was also analyzed using a homologous displacement mathematical model to extract the Bmax of the amyloid plaques. The measured Bmax is linear with the amount of amyloid used in the experiment. The ratio between Bmax and the amount of Aβ1-42 monomer measured by ELISA is about 1:2, somewhat less than that reported previously. […]
In this table, Ki is a measure (in nM units) of the binding affinity of the compound toward beta-amyloid plaques in AD brain tissue, measured through a competitive radioligand displacement in vitro assay using [^3H]6-OH-BTA-1 as the reference radioligand. The lipophilicity of the compound is represented by c Log D7.4 which is calculated through a software package (ACD/Log D version 8.0) at pH=7.4, a close mimic of physiological conditions. […]

[3] = Evaluation of radioligands in monkey in vivo with PET; set-up: species or system rhesus monkey; conditions: for brain uptake and washout (PET time-activity curves): intravenous, 18F-labelled
Experimental: A male rhesus monkey (15 kg) was initially immobilized with ketamine (15 mg/kg) and subsequently anesthetized with isoflurane (1.5%) for the duration of the experiment. The monkey was placed prone in the PET camera (HRRT, Siemens/CPS, Knoxyille, Tenn., USA). A fixation device was used to secure the monkey's head during scanning. A urinary catheter was inserted and clamped so that the activity overlaying the bladder represented the total urinary excretion during the scan. Electrocardiogram, body temperature, heart and respiration rates were measured throughout the experiment. Body temperature was controlled and monitored by a forced-air temperature management unit (Bair Hugger Model 505; Arizant Healthcare Inc.; MN, USA). The scanner consisted of eight flat panel detectors with a transaxial and axial coverage of 31.2 cm and 25.2 cm, respectively. The scanner is also equipped with dual-layered phoswich detector allowing depth-of-interaction. Dynamic PET scans were acquired in 64-bit list mode format, following the intravenous administration of Compound 1.6 (2.9 mCi). The scan lasted for 2 hours containing 33 frames with duration ranging from 30 seconds to 5 minutes. Data were reconstructed into a 256×256×207 image matrix (voxel size 1.21×1.21×1.23 mm), using a 3D list mode OSEM algorithm. The reconstructed image resolution was 2.5 mm. Transmission scan was acquired with a rotating ^137Cs point source for 6 minutes and used to correct for attenuation. A model-based scatter correction was applied. Tomographic images were analyzed with PMOD 2.6. Time activity curves (FIGS. 4-6) were calculated in % SUV for volume of interest (VOIs), defined by co-registration with MRI (see below), and compared for uptake and washout between different brain regions.
Co-registration of PET Data with MRI. All frames of the original reconstructed PET data were summed and then co-registered to a T1-weighted magnetic resonance (MR) image acquired separately on a 1.5 T Signa MR scanner (GE Medical Systems) with image analysis software MEDx (Sensor Systems Inc.; Sterling, Va., U.S.A.). The summed PET image was fused with the co-registered MR image with an image fusion tool in PMOD. Several VOIs for the source organs were then manually defined on this fused image with anatomical structures identified on the MR image.

[4] = tested on: amyloid plaques in AD brain tissue slides; assay: Autoradiography on post mortem human brain tissue slides; format: binding; conditions: for binding in AD brain tissue slides (autoradiography): amyloid-loaded gray matter region; for radioactivity on healthy brain tissue (autoradiography): normal control brain tissue slides
Experimental: Coronal sections of cerebrum from a confirmed case of AD (person, postmortem interval (PMI) 47.5 hours) and a normal control (person, PMI 28.5 hours) were frozen rapidly in an equal mixture of dry ice and isopentane, sealed in a plastic bag and stored at −76° C. before sectioning. Frozen blocks of the medial temporal lobe (hippocampal region) were sectioned at a thickness of 14 μm, mounted on gelatin-coated glass slides, dried and stored under desiccant at −76° C. Before use, slide-mounted tissue sections were removed from the freezer, thawed at room temperature for 20 min, and air-dried. Compounds 1.6, 1.5 and 1.4 (1.0 mg) were dissolved in DMSO (3.529 mL) resulting in a stock solution of 1 mM, which was then further diluted with DMSO to 0.1 mM and then diluted with PBS to 1 μM. The AD tissue and normal tissue slides were pretreated with either a stock solution of Compounds 1.6, 1.5, and 1.4 or PBS for 20 min at room temperature. All slides were incubated for 20 min at room temperature in [^11C]PIB formulation solution (0.3 mCi). They were then dipped in ethanol for 5 min. The slides were dried on a hot plate with a stream of cold air and placed in a cassette with the exposed sides facing up. The phosphor imaging plate was held with the blue side down. The entire cassette was placed in the dark at room temperature overnight for ^11C-labeling. Digital autoradiography was acquired using a FUJI BAS 5000 phosphorimager (FUJI, Tokyo, Japan) with a resolution of 25 μm.

Sequence of beta-amyloid plaques in AD brain tissue (P05067 672-711 limits assumed): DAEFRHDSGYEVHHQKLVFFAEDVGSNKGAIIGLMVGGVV

SMILES | SUV (standardized uptake value) of radioactivity in brain [1] | pKi [2] | brain uptake and washout (PET time-activity curves) ([3]; normal male rhesus monkey) | binding in AD brain tissue slides (autoradiography) [4] | radioactivity on healthy brain tissue (autoradiography) [4] | further results
CN(CCF)c1ccc(-c2cn3cc(I)ccc3n2)cc1 [[^18F]FEM-IMPY, N-(2-fluoroethyl)-4-(6-iodo-H-imidazo[1,2-a]pyridin-2-yl)-N-methylbenzeneamine] | about 160 % I.D. kg/g |  |  |  |  | 
CNc1ccc(-c2nc3ccc(O)cc3s2)nc1F [Compound 1.6, 2-(6-Fluoro-5-(methylamino)pyridin-2-yl)benzo[d]thiazol-6-ol] |  | 7.70 | entered the brain very well and washed out fast | clear displaceable binding | no radioactivity was observed | pharmacokinetics compared among the three radioligands ([3]; normal male rhesus monkey, PET): most promising pharmacokinetics; time to uniform distribution of radioactivity after injection ([3]; normal monkey, PET): less than 1 hour; binding with amyloid plaques from autoradiography ([4]; summary statement): specific binding
CN(CCC[18F])c1ccc(-c2cn3cc(I)ccc3n2)cc1 [[^18F]FPM-IMPY] | about 160 % I.D. kg/g |  |  |  |  | 
CNc1ccc(-c2nc3ccc(O)cc3s2)cc1 [Compound 6-OH-BTA-1, 2-[4-(methylamino)phenyl]-6-hydroxybenzothiazole, reference compound] |  |  |  |  |  | displacement of reference radioligand ([2]; [3H]6-OH-BTA-1 displaced by non-radioactive ligand, isolated amyloid plaques): > 95%
CNc1ccc(-c2nc3ccc(OC)cc3s2)nc1F [Compound 1.5, 2-Fluoro-6-(6-methoxybenzo[d]thiazol-2-yl)-N-methylpyridin-3-amine] |  | 8.00 | entered the brain very well and washed out fast | clear displaceable binding | no radioactivity was observed | 
